Laboratory results: the supplement of paper PMC12420376

Experiments:
Experiment in all cases: cell viability relative to untreated control (ex vivo patient spheroids); higher = less cytotoxic
Settings in all cases: 72 h
[1] = tested on: Gem015 (ex vivo spheroids of an HRD-positive high-grade serous ovarian cancer)
Description: (§1)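 Ex vivo 3D spheroid cultures from dissociated tumours of HGSOC patients (DET3CT platform) were treated for 72 h with dose matrices of carboplatin combined with birinapant or vorinostat (nM). Live (TMRM) and dead (POPO-1) cells were imaged and viability was expressed as % of untreated control.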

[2] = tested on: Gem031 (ex vivo spheroids of an HRD-negative high-grade serous ovarian cancer)
Description: as §1

[3] = tested on: Gem119 (ex vivo spheroids of an HRD-positive high-grade serous ovarian cancer)
Description: as §1

[4] = tested on: Gem129 (ex vivo spheroids of an HRD-positive high-grade serous ovarian cancer)
Description: as §1

[5] = tested on: Gem243 (ex vivo spheroids of an HRD-positive high-grade serous ovarian cancer)
Description: as §1

O=C(O)C1(C(=O)O)CCC1.[NH2-].[NH2-].[Pt+2] [Carboplatin] + CC[C@H](NC(=O)[C@H](C)NC)C(=O)N1C[C@@H](O)C[C@H]1Cc1c(-c2[nH]c3cc(F)ccc3c2C[C@@H]2C[C@H](O)CN2C(=O)[C@H](CC)NC(=O)[C@H](C)NC)[nH]c2cc(F)ccc12 [Birinapant]
cell viability [%]
Settings	partner drug concentration 0 nM	partner drug concentration 0.1 nM	partner drug concentration 1 nM	partner drug concentration 10 nM	partner drug concentration 100 nM	partner drug concentration 1000 nM
[1], carboplatin concentration 10 nM	–	100	93.1	93.5	82	55.1
[1], carboplatin concentration 100 nM	–	98.5	90	101	77	67.2
[1], carboplatin concentration 1000 nM	–	103	89.1	81.6	85.2	59.3
[1], carboplatin concentration 10000 nM	91.1	73.5	97.6	89.5	84.6	59
[1], carboplatin concentration 100000 nM	61.2	58.2	75.8	73.6	58.7	39.9
[2], carboplatin concentration 10 nM	–	93	91.2	96	55.3	25.3
[2], carboplatin concentration 100 nM	–	98.1	92.1	88.6	61.2	26.3
[2], carboplatin concentration 1000 nM	–	98.6	91.8	93.6	56.8	24.8
[2], carboplatin concentration 10000 nM	79.2	87	97.5	77.6	46.3	15.5
[2], carboplatin concentration 100000 nM	26.3	26.1	27.6	22.9	11.4	3.6
[3], carboplatin concentration 10 nM	–	83.3	107	102	90.8	67.6
[3], carboplatin concentration 100 nM	–	83.6	112	74.4	90.8	66.8
[3], carboplatin concentration 1000 nM	–	111	107	100	117	86
[3], carboplatin concentration 10000 nM	112	96.4	72.9	116	110	81.3
[3], carboplatin concentration 100000 nM	75.9	65.3	86.1	54.4	69.5	62.6
[4], carboplatin concentration 10 nM	–	105	82.3	101	87.1	76.2
[4], carboplatin concentration 100 nM	–	94.9	97.3	96	89.5	96.1
[4], carboplatin concentration 1000 nM	–	96.4	100	92.5	86.2	73.2
[4], carboplatin concentration 10000 nM	80.4	86.7	95.8	86.7	90.5	67.4
[4], carboplatin concentration 100000 nM	57.5	57.3	31.2	29.8	27.8	19.6
[5], carboplatin concentration 10 nM	–	92.7	105	80.2	52.3	13.7
[5], carboplatin concentration 100 nM	–	108	105	84.7	41.3	15.9
[5], carboplatin concentration 1000 nM	–	95.4	94.8	93.9	45.3	15.2
[5], carboplatin concentration 10000 nM	89.9	90.9	77.3	82.9	42.4	13.9
[5], carboplatin concentration 100000 nM	23.6	28.8	24.9	14	7.4	6

O=C(O)C1(C(=O)O)CCC1.[NH2-].[NH2-].[Pt+2] [Carboplatin] + O=C(CCCCCCC(=O)Nc1ccccc1)NO [Vorinostat]
cell viability [%]
Settings	partner drug concentration 0 nM	partner drug concentration 1 nM	partner drug concentration 10 nM	partner drug concentration 100 nM	partner drug concentration 1000 nM	partner drug concentration 10000 nM
[1], carboplatin concentration 10 nM	85.7	100	97.5	97.6	76.3	35.6
[1], carboplatin concentration 100 nM	97.2	94.2	92.8	93.8	79.3	37.7
[1], carboplatin concentration 1000 nM	88.1	96.2	91.6	91.3	71.6	36.2
[1], carboplatin concentration 10000 nM	91.1	84.9	97.1	95.6	77.2	36.1
[1], carboplatin concentration 100000 nM	61.2	71.2	77.1	74.6	63.5	32.3
[2], carboplatin concentration 10 nM	87.9	97.2	94	90.4	85.1	89.4
[2], carboplatin concentration 100 nM	110	97.1	101	95.1	92.6	98.7
[2], carboplatin concentration 1000 nM	88	96.9	104	100	93.3	64.1
[2], carboplatin concentration 10000 nM	79.2	97.2	90.6	92.2	78.4	38.7
[2], carboplatin concentration 100000 nM	26.3	31.4	30.1	22.9	16.9	14.6
[3], carboplatin concentration 10 nM	102	90	102	93.8	93	26.9
[3], carboplatin concentration 100 nM	124	105	103	118	94.6	45.7
[3], carboplatin concentration 1000 nM	99.4	110	92	110	92.7	30.3
[3], carboplatin concentration 10000 nM	112	93.7	96.1	70.3	100	17.2
[3], carboplatin concentration 100000 nM	75.9	50.1	81.2	44.7	58.9	9.6
[4], carboplatin concentration 10 nM	95.8	104	37.5	107	87.6	80.2
[4], carboplatin concentration 100 nM	82.8	104	102	97.6	91.9	77.7
[4], carboplatin concentration 1000 nM	86	109	108	98.1	81.2	77.3
[4], carboplatin concentration 10000 nM	80.4	97.8	90.4	90.4	87.5	59.6
[4], carboplatin concentration 100000 nM	57.5	35.8	41.7	33.9	25.8	3.4
[5], carboplatin concentration 10 nM	90.3	88.4	82.3	101	67.9	19.7
[5], carboplatin concentration 100 nM	87.3	98	91.7	90.8	74.3	13.3
[5], carboplatin concentration 1000 nM	107	105	47.4	101	68.9	10.1
[5], carboplatin concentration 10000 nM	89.9	95.3	101	104	42.1	10.4
[5], carboplatin concentration 100000 nM	23.6	21.6	17	11.3	7.3	6.7
